Reference: BigSolDB 2.1

CCOC(=O)[C@@H]1CSCN1.Cl
solubility (mole fraction)
Conditions	283.15 K	288.15 K	293.15 K	298.15 K	303.15 K	313.15 K	323.15 K
in 1,4-dioxane	–	0.000476	0.000593	–	0.000872	0.00156	0.00266
in 2-butanone	4.1e-05	–	0.000107	–	0.00018	0.000298	0.000434
in acetone	4e-05	–	0.000116	–	0.000348	0.000859	0.00187
in acetonitrile	0.000408	–	0.00125	–	0.00252	0.00451	0.00664
in dichloromethane	0.00638	0.01	0.0128	0.0157	0.0187	–	–
in ethanol	0.00937	–	0.0125	–	0.0193	0.0306	0.0473
in ethyl acetate	0.000103	–	0.000161	–	0.000215	0.000273	0.000345
in isobutanol	0.00153	–	0.00257	–	0.00495	0.00811	0.0117
in isopropanol	0.00271	–	0.00323	–	0.00492	0.00807	0.0131
in methanol	0.0465	–	0.0619	–	0.0835	0.112	0.142
in methyl acetate	3.8e-05	–	7e-05	–	0.000126	0.000192	0.000276
in n-butanol	0.00141	–	0.00427	–	0.00829	0.0124	0.017
in n-propanol	0.00489	–	0.0078	–	0.012	0.0186	0.0298
in sec-butanol	0.000766	–	0.00103	–	0.00182	0.00365	0.00936
in water	0.0825	–	0.104	–	0.124	0.148	0.188
